Data: ChEMBL document CHEMBL5537135, “Novel antimicrobial peptides modified with fluorinated sulfono-γ-AA having high stability and targeting multidrug-resistant bacteria infections” (Eur J Med Chem, 2024)
Peptide text beside a SMILES is read from it. * marks the point of attachment. X8 = NC(=O)CN(C[C@H](Cc1ccccc1)N*)S(=O)(=O)c1cc(C(F)(F)F)cc(C(F)(F)F)c1; X6 = CC(C)C[C@@H](CN(CC(N)=O)S(=O)(=O)c1cc(C(F)(F)F)cc(C(F)(F)F)c1)N*; X5 = NC(=O)CN(C[C@H](Cc1ccccc1)N*)S(=O)(=O)c1ccc(C(F)(F)F)cc1

How the values were obtained:
Escherichia coli = experiment: Antimicrobial activity against Escherichia coli ATCC 25922 assessed as inhibition of visible bacterial growth incubated for 18 hrs by broth-dilution method; assay type: functional
Pseudomonas aeruginosa [1] = experiment: Antimicrobial activity against Pseudomonas aeruginosa ATCC 27853 assessed as inhibition of visible bacterial growth incubated for 18 hrs by broth-dilution method; assay type: functional
Acinetobacter baumannii = experiment: Antimicrobial activity against Acinetobacter baumannii ATCC 19606 assessed as inhibition of visible bacterial growth incubated for 18 hrs by broth-dilution method; assay type: functional
Salmonella typhimurium = experiment: Antimicrobial activity against Salmonella typhimurium ATCC 14028 assessed as inhibition of visible bacterial growth incubated for 18 hrs by broth-dilution method; assay type: functional, Salmonella enterica subsp. enterica serovar Typhimurium; conditions: Salmonella enterica
Staphylococcus aureus [2] = experiment: Antimicrobial activity against Staphylococcus aureus ATCC 25923 assessed as inhibition of visible bacterial growth incubated for 18 hrs by broth-dilution method; assay type: functional
[3] = tested on: Staphylococcus epidermidis; experiment: Antimicrobial activity against Staphylococcus epidermidis ATCC 12228 assessed as inhibition of visible bacterial growth incubated for 18 hrs by broth-dilution method; assay type: functional
Bacillus subtilis = experiment: Antimicrobial activity against Bacillus subtilis ATCC 23857 assessed as inhibition of visible bacterial growth incubated for 18 hrs by broth-dilution method; assay type: functional
Staphylococcus aureus [4] = experiment: Antimicrobial activity against methicillin-resistant Staphylococcus aureus ATCC 33591 assessed as inhibition of visible bacterial growth incubated for 18 hrs by broth-dilution method; assay type: functional
Pseudomonas aeruginosa [5] = experiment: Antimicrobial activity against multidrug-resistant Pseudomonas aeruginosa 050 assessed as inhibition of visible bacterial growth incubated for 18 hrs by broth-dilution method; assay type: functional
Pseudomonas aeruginosa [6] = experiment: Antimicrobial activity against multidrug-resistant Pseudomonas aeruginosa 061 assessed as inhibition of visible bacterial growth incubated for 18 hrs by broth-dilution method; assay type: functional
Pseudomonas aeruginosa [7] = experiment: Antimicrobial activity against multidrug-resistant Pseudomonas aeruginosa 073 assessed as inhibition of visible bacterial growth incubated for 18 hrs by broth-dilution method; assay type: functional
Pseudomonas aeruginosa [8] = experiment: Antimicrobial activity against multidrug-resistant Pseudomonas aeruginosa 085 assessed as inhibition of visible bacterial growth incubated for 18 hrs by broth-dilution method; assay type: functional
Pseudomonas aeruginosa [9] = experiment: Antimicrobial activity against multidrug-resistant Pseudomonas aeruginosa 119 assessed as inhibition of visible bacterial growth incubated for 18 hrs by broth-dilution method; assay type: functional
Pseudomonas aeruginosa [10] = experiment: Antimicrobial activity against multidrug-resistant Pseudomonas aeruginosa 124 assessed as inhibition of visible bacterial growth incubated for 18 hrs by broth-dilution method; assay type: functional
Pseudomonas aeruginosa [11] = experiment: Antimicrobial activity against multidrug-resistant Pseudomonas aeruginosa 125 assessed as inhibition of visible bacterial growth incubated for 18 hrs by broth-dilution method; assay type: functional
Pseudomonas aeruginosa [12] = experiment: Antimicrobial activity against multidrug-resistant Pseudomonas aeruginosa 156 assessed as inhibition of visible bacterial growth incubated for 18 hrs by broth-dilution method; assay type: functional
Pseudomonas aeruginosa [13] = experiment: Antimicrobial activity against multidrug-resistant Pseudomonas aeruginosa 157 assessed as inhibition of visible bacterial growth incubated for 18 hrs by broth-dilution method; assay type: functional
Pseudomonas aeruginosa [14] = experiment: Antimicrobial activity against multidrug-resistant Pseudomonas aeruginosa 516 assessed as inhibition of visible bacterial growth incubated for 18 hrs by broth-dilution method; assay type: functional
Staphylococcus aureus [15] = experiment: Antimicrobial activity against methicillin-resistant Staphylococcus aureus 1 assessed as inhibition of visible bacterial growth incubated for 18 hrs by broth-dilution method; assay type: functional
Staphylococcus aureus [16] = experiment: Antimicrobial activity against methicillin-resistant Staphylococcus aureus 2 assessed as inhibition of visible bacterial growth incubated for 18 hrs by broth-dilution method; assay type: functional
Staphylococcus aureus [17] = experiment: Antimicrobial activity against methicillin-resistant Staphylococcus aureus 3 assessed as inhibition of visible bacterial growth incubated for 18 hrs by broth-dilution method; assay type: functional
Staphylococcus aureus [18] = experiment: Antimicrobial activity against methicillin-resistant Staphylococcus aureus 4 assessed as inhibition of visible bacterial growth incubated for 18 hrs by broth-dilution method; assay type: functional
Staphylococcus aureus [19] = experiment: Antimicrobial activity against methicillin-resistant Staphylococcus aureus 5 assessed as inhibition of visible bacterial growth incubated for 18 hrs by broth-dilution method; assay type: functional
Staphylococcus aureus [20] = experiment: Antimicrobial activity against methicillin-resistant Staphylococcus aureus 6 assessed as inhibition of visible bacterial growth incubated for 18 hrs by broth-dilution method; assay type: functional
Staphylococcus aureus [21] = experiment: Antimicrobial activity against methicillin-resistant Staphylococcus aureus 7 assessed as inhibition of visible bacterial growth incubated for 18 hrs by broth-dilution method; assay type: functional
Staphylococcus aureus [22] = experiment: Antimicrobial activity against methicillin-resistant Staphylococcus aureus 8 assessed as inhibition of visible bacterial growth incubated for 18 hrs by broth-dilution method; assay type: functional
Staphylococcus aureus [23] = experiment: Antimicrobial activity against methicillin-resistant Staphylococcus aureus 9 assessed as inhibition of visible bacterial growth incubated for 18 hrs by broth-dilution method; assay type: functional
Staphylococcus aureus [24] = experiment: Antimicrobial activity against methicillin-resistant Staphylococcus aureus 10 assessed as inhibition of visible bacterial growth incubated for 18 hrs by broth-dilution method; assay type: functional
Staphylococcus aureus [25] = experiment: Antibacterial activity against antibiotics-resistant Staphylococcus aureus ATCC 33591 assessed as reduction in microbial growth; assay type: functional
Pseudomonas aeruginosa [26] = experiment: Antibacterial activity against antibiotics-resistant Pseudomonas aeruginosa […] assessed as reduction in microbial growth; assay type: functional
Erythrocyte = experiment: Hemolytic activity against mouse Red blood cell incubated for 1 hr; assay type: toxicity, cell-based
[27] = Stability in human serum assessed as half life measured for 5 hrs by RP-HPLC analysis; assay type: ADME, cell-free
Staphylococcus aureus [28] = experiment: Antimicrobial activity against Staphylococcus aureus ATCC 25923 assessed as fold change in MIC in presence of salt solution; assay type: functional
Staphylococcus aureus [29] = experiment: Antimicrobial activity against Staphylococcus aureus ATCC 25923 assessed as reduction in bacterial growth in presence of Ca2+; assay type: functional

C[C@@H](O)[C@H]1C(=O)N2C(C(=O)O)=C(SCCNC=N)C[C@H]12 [IMIPENEM ANHYDROUS]
2 µg/mL: MIC (Pseudomonas aeruginosa [1]) | MIC (Pseudomonas aeruginosa [6]) | MIC (Pseudomonas aeruginosa [9]) | MIC (Pseudomonas aeruginosa [13])
8 µg/mL: MIC (Pseudomonas aeruginosa [5]) | MIC (Pseudomonas aeruginosa [8]) | MIC (Pseudomonas aeruginosa [11])
1 µg/mL: MIC (Escherichia coli) | MIC (Acinetobacter baumannii) | MIC (Salmonella typhimurium) | MIC (Staphylococcus aureus [2]) | MIC [3] | MIC (Bacillus subtilis) | MIC (Staphylococcus aureus [15]) | MIC (Staphylococcus aureus [16]) | MIC (Staphylococcus aureus [17]) | MIC (Staphylococcus aureus [18]) | MIC (Staphylococcus aureus [19]) | MIC (Staphylococcus aureus [20]) | MIC (Staphylococcus aureus [21]) | MIC (Staphylococcus aureus [22]) | MIC (Staphylococcus aureus [23]) | MIC (Staphylococcus aureus [24])
4 µg/mL: MIC (Pseudomonas aeruginosa [7]) | MIC (Pseudomonas aeruginosa [10]) | MIC (Pseudomonas aeruginosa [12]) | MIC (Pseudomonas aeruginosa [14])
32 µg/mL: MIC (Staphylococcus aureus [4]) | MIC (Staphylococcus aureus [25]) | MIC (Pseudomonas aeruginosa [26])

CC(C)C[C@H](NC(=O)[C@H](CC(C)C)NC(=O)[C@H](CCCCN)NC(=O)[C@H](CC(C)C)NC(=O)[C@@H](N)Cc1ccccc1)C(=O)N[C@@H](CCCCN)C(=O)N[C@@H](CCCCN)C(=O)N[C@@H](Cc1ccccc1)CN(CC(N)=O)S(=O)(=O)c1cc(C(F)(F)F)cc(C(F)(F)F)c1 (H-FLKLLKK-X8)
16 µg/mL: MIC (Pseudomonas aeruginosa [1]) | MIC (Acinetobacter baumannii)
4 µg/mL: MIC (Staphylococcus aureus [2]) | MIC [3] | MIC (Bacillus subtilis) | MIC (Staphylococcus aureus [4])
8 µg/mL: MIC (Escherichia coli) | MIC (Salmonella typhimurium)
3.31 h: half-life [27]
64 µg/mL: MHC (Erythrocyte)

CC1(C)S[C@@H]2[C@H](NC(=O)[C@H](N)c3ccc(O)cc3)C(=O)N2[C@H]1C(=O)O [AMOXICILLIN]
32 µg/mL: MIC (Staphylococcus aureus [19]) | MIC (Staphylococcus aureus [20]) | MIC (Staphylococcus aureus [24])
16 µg/mL: MIC (Staphylococcus aureus [21])
128 µg/mL: MIC (Acinetobacter baumannii) | MIC (Staphylococcus aureus [4])
1 µg/mL: MIC (Staphylococcus aureus [2])
4 µg/mL: MIC (Escherichia coli) | MIC (Staphylococcus aureus [15]) | MIC (Staphylococcus aureus [16]) | MIC (Staphylococcus aureus [17]) | MIC (Staphylococcus aureus [22])
256 µg/mL: MIC (Pseudomonas aeruginosa [1]) | MIC (Salmonella typhimurium) | MIC [3] | MIC (Bacillus subtilis)
8 µg/mL: MIC (Staphylococcus aureus [18]) | MIC (Staphylococcus aureus [23])

H-FLKLLKKLL-NH2
32 µg/mL: MIC (Escherichia coli)
16 µg/mL: MIC (Acinetobacter baumannii) | MIC (Salmonella typhimurium) | MIC (Staphylococcus aureus [2]) | MIC [3] | MIC (Staphylococcus aureus [4])
1.09 h: half-life [27]
8 µg/mL: MIC (Pseudomonas aeruginosa [1]) | MIC (Pseudomonas aeruginosa [5]) | MIC (Pseudomonas aeruginosa [6]) | MIC (Pseudomonas aeruginosa [7]) | MIC (Pseudomonas aeruginosa [8]) | MIC (Pseudomonas aeruginosa [10]) | MIC (Pseudomonas aeruginosa [11]) | MIC (Pseudomonas aeruginosa [12]) | MIC (Pseudomonas aeruginosa [13]) | MIC (Pseudomonas aeruginosa [14]) | MIC (Staphylococcus aureus [16]) | MIC (Staphylococcus aureus [18]) | MIC (Staphylococcus aureus [19]) | MIC (Staphylococcus aureus [20]) | MIC (Staphylococcus aureus [22])
4 µg/mL: MIC (Bacillus subtilis) | MIC (Pseudomonas aeruginosa [9]) | MIC (Staphylococcus aureus [15]) | MIC (Staphylococcus aureus [17]) | MIC (Staphylococcus aureus [21]) | MIC (Staphylococcus aureus [23]) | MIC (Staphylococcus aureus [24])
256 µg/mL: MHC (Erythrocyte)

CC(C)C[C@H](NC(=O)[C@H](CC(C)C)NC(=O)[C@H](CCCCN)NC(=O)[C@H](CC(C)C)NC(=O)[C@@H](N)Cc1ccccc1)C(=O)N[C@@H](CCCCN)C(=O)N[C@@H](CCCCN)C(=O)N[C@@H](Cc1ccccc1)CN(CC(N)=O)S(=O)(=O)c1ccc(C(F)(F)F)cc1 (H-FLKLLKK-X5)
8 µg/mL: MIC (Pseudomonas aeruginosa [1]) | MIC (Staphylococcus aureus [2]) | MIC (Staphylococcus aureus [4])
4 µg/mL: MIC [3] | MIC (Bacillus subtilis)
2.61 h: half-life [27]
16 µg/mL: MIC (Acinetobacter baumannii) | MIC (Salmonella typhimurium)
32 µg/mL: MIC (Escherichia coli) | MIC (Staphylococcus aureus [29])
0.25: fold change (FC) (Staphylococcus aureus [28])
128 µg/mL: MHC (Erythrocyte)

CC(C)C[C@@H](CN(CC(N)=O)S(=O)(=O)c1cc(C(F)(F)F)cc(C(F)(F)F)c1)NC(=O)[C@H](CCCCN)NC(=O)[C@H](CCCCN)NC(=O)[C@H](CC(C)C)NC(=O)[C@H](CC(C)C)NC(=O)[C@H](CCCCN)NC(=O)[C@H](CC(C)C)NC(=O)[C@@H](N)Cc1ccccc1 (H-FLKLLKK-X6)
32 µg/mL: MIC (Staphylococcus aureus [29])
0.25: fold change (FC) (Staphylococcus aureus [28])
2.24 h: half-life [27]
8 µg/mL: MIC (Escherichia coli) | MIC (Pseudomonas aeruginosa [1]) | MIC (Acinetobacter baumannii) | MIC (Salmonella typhimurium) | MIC (Staphylococcus aureus [2])
4 µg/mL: MIC (Staphylococcus aureus [4])
16 µg/mL: MIC [3] | MIC (Bacillus subtilis)
128 µg/mL: MHC (Erythrocyte)
